Results on 13 molecules are retold here after patent publication US10662204B2 (PFIZER INC., priority 2018, dated 2020).

Broadly, the IC50 is the midpoint of a concentration-inhibition curve.

One test has as its target KRAS G12C (Homo sapiens, UniProt P01116, G12C). Briefly: Cell Activity Assay: accumulation of GDP-bound KRAS G12C in MIAPaCa-2 cells (Raf-1 RBD capture, MSD readout). Format: cell-based. Details: endogenous in cells; host or cells: MIAPaCa-2. To be noted: 6 hours, assay limit is 30.00. The protocol:
Compounds presented in the present invention lead to the accumulation of the GDP bound Ras upon treatment of human cancer cell line.
The accumulation of the GDP-bound KRAS G12C in cellular environment was measured based on the principle that KRAS G12C only binds to its downstream kinase; Raf-1 (MAP Kinase Kinase Kinase), when in its active-GTP bound state. In this state, Ras binded to a domain of Raf-1 kinase referred to as the Ras Binding Domain (RBD).
MIAPaCa-2 cells were grown in RPMI 1640 medium (Gibco 11875) supplemented with 10% fetal bovine serum and 1% penicillin/streptomycin. Cells were seeded in 96-well tissue culture plates at a density of 30,000 cells/well and allowed to attach for 16-24 hours. Test compounds were prepared as a 10 mM stock in DMSO and serially diluted in 100% DMSO using a 3-fold dilution scheme. An intermediate 5× concentrated plate in complete growth medium was made and 25 μl/well was added to the 100 μl of cells for a final concentration of 0.3% DMSO. Each concentration of exemplary compound was tested in duplicate. The negative control wells were cells with control inhibitor at 10 μM, and the positive control wells were cells without drugs, DMSO only. Plates were incubated for 6 hours at 37° C., 5% CO2. Following treatment, cells were washed 3× with ice-cold PBS and 115 μl/well ice-cold 1× Assay/Lysis. Buffer with protease inhibitors was added (25 mM HEPES, pH 7.5, 150 mM NaCl, 1% NP-40, 10 mM MgCl2, 1 mM EDTA, 2% Glycerol). Following lysis samples were frozen at −80° C.
Raf-1 RBD (LJIC-1988A1) was diluted to 100 ng/well in PBS and 5 μl/well was spot coated onto MSD high bind SECTOR plates (L15XB). Plates were incubated at room temperature for 1 hour on an orbital shaker. Plates were washed with PBS/0.05% Tween-20 and 50 μl/well of thawed lysate samples were added, followed by 50 μl of 1% MSD Blocker A in PBS/0.05 Tween-20 (R93BA). Plates were incubated for 1 hour on an orbital shaker and washed with PBS/0.05% Tween-20. 25 μl/well of Anti-pan-Ras Antibody (Cell Biolabs 244003) diluted 1:3000 was added in 1% MSD Blocker A solution and plates were incubated for 1 hour on an orbital shaker and washed with PBS/0.05% Tween-20. SULFO-TAG goat anti-mouse secondary antibody (MSD R32AC) was diluted 1:500 in MSD Blocker A solution and added at 25 μL/well. Plates were incubated for 1 hour on an orbital shaker and washed with PBS/0.05% Tween-20. 150 μl/well of Read Buffer T (MSD R92TC) diluted 1:3 in H2O was added and plates were read on a Meso Scale Discovery Sector Imager S600.
KRAS signal was normalized to maximum inhibition and DMSO control values, and IC50 values were generated using a 4 parameter fit of the dose response curve. The decrease in IC50 reflects that the exemplary compound lead to a higher level of accumulation of GDP-bound KRAS G12C than another exemplary compounds at specific timepoint of treatment of cancer cell line.

Test [1] deals with T1, GDP-loaded KRAS (1-169) G12C, C51S, C80L, C118S (Homo sapiens, UniProt P01116, C118S/C51S/C80L/G12C).
T1 construct: GDP-loaded KRAS (1-169) G12C, C51S, C80L, C118S
Put plainly: Mass Spectrometry Reactivity Assay (MSRA): covalent adduct of compound and KRAS G12C, Percent Modification. It is filed as binding. The conditions noted are these: for MSRA (% modification) 10 μM 0.50 hr / MSRA (% modification) 10 μM 0.25 hr: 10 μM compound; for MSRA (% modification) 5.0 μM 0.25 hr / MSRA (% modification) 5.0 μM 0.017 hr: 5.0 μM compound. As to the method: Mass Spectrometry Reactivity Assay (MSRA)
Compounds presented in the present invention covalently bind to KRAS G12C using MSRA to detect a covalent adduct of the exemplary compound and KRAS G12C.
GDP-loaded KRAS (1-169) G12C, C51S, C80L, C118S were diluted in the protein assay buffer 25 mM Hepes pH7.5, 200 mM NaCl, 5% glycerol to concentration of 5 μM and 20 μl of protein was transferred into 96-well plate. Initial compound stocks were generated at concentrations 100-fold higher that their desired assay concentrations. See K-Ras(G12C) inhibitors allosterically control GTP affinity and effector interactions; Ostrem J M, Peters U, Sos M L, Wells J A, Shokat K M; Nature. 2013, Nov. 28; 503(7477):548-51.
Exemplary compounds dissolved in DMSO were diluted 100-fold into solution containing 20 μl of 5 μM KRAS protein in the 96-well plate to initiate the reaction. Mosquito (TPP Lab tech) liquid handling robot was used to add compounds to protein solution. Typical final concentration of the compounds was 5 μM or 10 μM. The plates were placed on a shaker for 1 min at RT, sealed and incubated at room temperature for specified time period. 5 μl of reaction mix was added to 10 μl of 0.2% formic acid stop solution and mixed well. Typical end points were 1, 15, 30, and 60 min.
Data were collected using Waters Acquity H-class UPLC system/Xevo G2-XS TOF mass spectrometer. The protein was injected in their liquid phase onto a Bruker Microtrap protein column TR1/15109/03. The following buffers were used to set LC gradient: Buffer A: 0.2% formic acid H2O; B: 0.2% formic acid CAN. The protein was eluted from the column using the following LC Gradient: 0-0.4 min, 10% B to 30% B; 0.4 min-2.4 min, to 90% B, 2.5 min, 10% B, 3 min, 10% B. Initial data analysis was performed using MaxEnt software right after data acquisition.
The standard auto processing function was used to define percentage of unmodified and modified KRAS protein using MexEnt software right after data acquisition. The highest peak was defined as 100% while smaller peak as assigned the number defined by autoprocessing function. The percent of modification corresponding to modified with exemplary compound and unmodified KRAS GDP-loaded KRAS (1-169) G12C, C51S, C80L, C118S were exported to Xcel data analysis software.
The percent of modified protein at the defined concentration of exemplary compound was calculated using the following formula: % mod=Num of modified peak/Sum of modified+unmodified. The resultant value defined as Percent Modification (PM) and an increase in PM reflects that the specific compound is better than other compounds at specified compound concentration at a given time point.

On to `C=CC(=O)N1CCN(c2ncnc3c(Oc4cc(O)cc5ccccc45)nccc23)CC1` [Example 06, 1-(4-{8-[(3-Hydroxynaphthalen-1-yl)oxy]pyrido[3,4-d]pyrimidin-4-yl}piperazin-1-yl)prop-2-en-1-one], for which 29.7 µM corresponded to half-maximal inhibition on KRAS G12C (IC50). Further, the “MSRA (% modification) 10 μM 0.50 hr” value in test [1] is 20%.
Molecule `C=CC(=O)N1CCN(c2nc(N3C[C@@](C)(O)[C@@H]3C)nc3c(Oc4c(Cl)c(F)cc5[nH]ncc45)nccc23)CC1` [Example 06J, 1-(4-{8-[(5-chloro-6-fluoro-1H-indazol-4-yl)oxy]-2-[(2S,3R)-3-hydroxy-2,3-dimethylazetidin-1-yl]pyrido[3,4-d]pyrimidin-4-yl}piperazin-1-yl)prop-2-en-1-one] showed a concentration for half-maximal inhibition (IC50) against KRAS G12C of 0.638 µM. The “MSRA (% modification) 5.0 μM 0.25 hr” value in test [1] is on record as 33%.
In turn, `C=CC(=O)N1CCN(c2ncnc3c(Oc4c(Cl)c(F)cc5[nH]ncc45)nc(Cl)cc23)[C@@H](C)C1` [Example 39A, 1-[(3S)-4-{6-chloro-8-[(5-chloro-6-fluoro-1H-indazol-4-yl)oxy]pyrido[3,4-d]pyrimidin-4-yl}-3-methylpiperazin-1-yl]prop-2-en-1-one] gave an IC50 at KRAS G12C of 0.246 µM. Further, in test [1], the “MSRA (% modification) 10 μM 0.25 hr” value is 74%.
For `C=CC(=O)N1CCN(c2nc(OC3CN(C)CC34CC4)nc3c(Oc4c(Cl)c(F)cc5[nH]ncc45)nc(Cl)cc23)CC1` (stereo not shown) [Example 36G, 1-(4-{6-chloro-8-[(5-chloro-6-fluoro-1H-indazol-4-yl)oxy]-2-[(5-methyl-5-azaspiro[2.4]heptan-7-yl)oxy]pyrido[3,4-d]pyrimidin-4-yl}piperazin-1-yl)prop-2-en-1-one], the 50% inhibitory concentration (IC50) against KRAS G12C is 0.109 µM. The “MSRA (% modification) 5.0 μM 0.017 hr” value in test [1] is 35%.
Consider `C=CC(=O)N1CCN(c2nc(O[C@@H]3CN(C)C[C@H]3OC)nc3c(Oc4c(Cl)c(F)cc5[nH]ncc45)nc(Cl)cc23)CC1` [Example 24G, 1-[4-(6-chloro-8-[(5-chloro-6-fluoro-1H-indazol-4-yl)oxy]-2-{[(3R,4R)-4-methoxy-1-methylpyrrolidin-3-yl]oxy}pyrido[3,4-d]pyrimidin-4-yl)piperazin-1-yl]prop-2-en-1-one], for which the half-maximal inhibitory concentration (IC50) on KRAS G12C was determined as 0.004 µM. For the same molecule, in test [1], the “MSRA (% modification) 5.0 μM 0.017 hr” value was determined as 83% and the “MSRA (% modification) 5.0 μM 0.25 hr” value amounted to 84%.
In the case of `C=CC(=O)N1CCN(c2nc(O[C@@H]3CN(C)C[C@H]3OC)nc3c(Oc4c(C)ccc5[nH]ncc45)nccc23)CC1` [Example 28I], on KRAS G12C, the IC50 was 1 µM. Besides, the “MSRA (% modification) 5.0 μM 0.017 hr” value in test [1] stood at 11%.
In the same order, the values of `C=CC(=O)N1CCN(c2nc(O[C@@H]3CN(C)C[C@H]3OCC)nc3c(Oc4c(Cl)c(F)cc5[nH]ncc45)nccc23)CC1` [Example 18I, 1-[4-(8-[(5-chloro-6-fluoro-1H-indazol-4-yl)oxy]-2-{[(3R,4R)-4-ethoxy-1-methyl-pyrrolidin-3-yl]oxy}pyrido [3,4-d]pyrimidin-4-yl)piperazin-1-yl]prop-2-en-1-one] are 0.093 µM and 35%.
The molecule `C=CC(=O)N1CCN(c2nc(OC[C@@H]3C[C@H](F)CN3C)nc3c(Oc4c(C)c(Cl)cc5[nH]ncc45)nc(Cl)cc23)CC1` [Example 17G, 1-[4-(6-chloro-8-[(6-chloro-5-methyl-1H-indazol-4-yl)oxy]-2-{[(2S,4S)-4-fluoro-1-methylpyrrolidin-2-yl]methoxy}pyrido[3,4-d]pyrimidin-4-yl)piperazin-1-yl]prop-2-en-1-one] registered an IC50 at KRAS G12C of 0.054 µM. Besides, the “MSRA (% modification) 10 μM 0.25 hr” value in test [1] stood at 79%.
In turn, `C=CC(=O)N1CCN(c2ncnc3c(Oc4c(C)ccc5[nH]ncc45)cc(Cl)cc23)CC1` [Example 12C, 1-(4-{6-chloro-8-[(5-methyl-1H-indazol-4-yl)oxy]quinazolin-4-yl}piperazin-1-yl)prop-2-en-1-one] displayed an IC50 against KRAS G12C of 3.91 µM. In test [1], the “MSRA (% modification) 10 μM 0.50 hr” value turned out to be 34%.
Regarding `C=CC(=O)N1CCN(c2nc(O[C@H]3CN(C)C[C@@H]3OC)nc3c(Oc4c(Cl)c(F)cc5[nH]ncc45)nccc23)CC1` [Example 11I, 1-[4-(8-[(5-chloro-6-fluoro-1H-indazol-4-yl)oxy]-2-{[(3S,4S)-4-methoxy-1-methyl-pyrrolidin-3-yl]oxy}pyrido [3,4-d]pyrimidin-4-yl)piperazin-1-yl]prop-2-en-1-one], the IC50 on KRAS G12C was 0.321 µM. In test [1], the “MSRA (% modification) 5.0 μM 0.25 hr” value came to 32%.
For `C=CC(=O)N1CCN(c2nc(OC[C@@H]3C[C@@H](F)CN3C)nc3c(Oc4c(Cl)c(F)cc5[nH]ncc45)nccc23)CC1` [Example 16H, 1-[4-(8-[(5-chloro-6-fluoro-1H-indazol-4-yl)oxy]-2-{[(2S,4R)-4-fluoro-1-methylpyrrolidin-2-yl]methoxy}pyrido[3,4-d]pyrimidin-4-yl)piperazin-1-yl]prop-2-en-1-one], in that order: 0.169 µM and 57%.
Regarding `C=CC(=O)N1CCN(c2nc(O[C@@H]3CN(C)C[C@H]3OC)nc3c(Oc4c(Cl)c(F)cc5[nH]ncc45)nccc23)CC1` [Example 10I, 1-[4-(8-[(5-chloro-6-fluoro-1H-indazol-4-yl)oxy]-2-{[(3R,4R)-4-methoxy-1-methylpyrrolidin-3-yl]oxy}pyrido[3,4-d]pyrimidin-4-yl)piperazin-1-yl]prop-2-en-1-one], the midpoint of inhibition on KRAS G12C, the IC50, lay at 0.022 µM. In addition, in test [1], the “MSRA (% modification) 5.0 μM 0.017 hr” value worked out at 70% and the “MSRA (% modification) 5.0 μM 0.25 hr” value worked out at 82%.
On to `C=CC(=O)N1CCN(c2nc(N(C)CCC(=O)NC)nc3c(Oc4c(C)ccc5[nH]ncc45)cccc23)CC1` [Example 14F, N^3-{4-(4-acryloylpiperazin-1-yl)-8-[(5-methyl-1H-indazol-4-yl)oxy]quinazolin-2-yl}-N,N^3-dimethyl-β-alaninamide], for which, on KRAS G12C, the concentration for half-maximal inhibition (IC50) turned out to be 29 µM. The “MSRA (% modification) 10 μM 0.50 hr” value in test [1] was determined as 12%.
